# Laboratory results reported in ChEMBL document CHEMBL6103573, “Discovery of novel thienopyridine indole derivatives as inhibitors of tubulin polymerization targeting the colchicine-binding site with potent anticancer activities” (Eur J Med Chem, 2025).
# How the values were obtained:
# MGC-803 [1] = assay: Antiproliferative activity against human MGC-803 cells assessed as inhibition of cell proliferation incubated for 48 hrs by MTT assay; format: functional, cell-based; conditions: MGC-803, 48 h
# HCT-116 = assay: Antiproliferative activity against human HCT-116 cells assessed as inhibition of cell proliferation incubated for 48 hrs by MTT assay; format: functional, cell-based; conditions: HCT-116, 48 h
# KYSE-450 = assay: Antiproliferative activity against human KYSE-450 cells assessed as inhibition of cell proliferation incubated for 48 hrs by MTT assay; format: functional, cell-based; conditions: KYSE-450, 48 h
# MGC-803 [2] = assay: Antitumor activity against human MGC-803 cells xenografted in female BALB/c-nu nude mouse assessed as tumor inhibition rate at 20 mg/kg, ip administrated every other day for 11 times and measured after 21 days relative to control; format: functional; conditions: MGC-803, 504 h, time 21 day, read-out: TGI
# Tubulin (Homo sapiens) = Tubulin (Homo sapiens) (UniProt P68371+Q9H4B7+P0DPH7+P68366+Q13509+Q71U36+P04350+Q3ZCM7+P07437+P68363+Q9BQE3+Q6PEY2+Q13885+Q9BVA1+Q9BUF5); assay: Inhibition of tubulin (unknown origin) polymerization assessed as decrease in fluorescence intensity at 3 micromol/L in the presence of GTP by fluorescence microplate reader; format: protein-complex assay; conditions: dose 3.0 µmol/L
SMILES,IC50 (MGC-803 [1]),IC50 (HCT-116),IC50 (KYSE-450),inhibition in vivo at 20 mg/kg (MGC-803 [2]),inhibition (Tubulin (Homo sapiens))
Cn1ccc2cc(Nc3ncnc4ccsc34)ccc21,> 5 µM,> 5 µM,> 5 µM,,
Cn1ccc2cc(Nc3nc(Cl)nc4ccsc34)ccc21,> 5 µM,> 5 µM,> 5 µM,,
CN1CCN(c2nc(N(C)c3ccc4c(ccn4C)c3)c3ccsc3n2)CC1,0.219 µM,0.441 µM,0.389 µM,,
CC(=O)N1CCN(c2nc(N(C)c3ccc4c(ccn4C)c3)c3ccsc3n2)CC1,0.308 µM,0.487 µM,0.413 µM,,
Cn1ccc2cc(Nc3nc(Cl)nc4sccc34)ccc21,> 5 µM,> 5 µM,> 5 µM,,
CN(c1ccc2c(ccn2C)c1)c1nc(N2CCC(C(=O)OC(C)(C)C)CC2)nc2sccc12,0.337 µM,0.388 µM,0.422 µM,,
CN(c1ccc2c(ccn2C)c1)c1nc(N2CCSCC2)nc2sccc12,0.113 µM,0.129 µM,0.289 µM,,
CCCN(c1ccc2c(ccn2C)c1)c1nc(Cl)nc2sccc12,0.0892 µM,0.125 µM,0.122 µM,,
CN(c1ccc2c(ccn2Cc2ccccc2)c1)c1nc(Cl)nc2sccc12,0.893 µM,0.831 µM,0.921 µM,,
CN(c1ccc2c(ccn2C)c1)c1nc(N2CCN(C(=O)OC(C)(C)C)CC2)nc2sccc12,0.589 µM,0.682 µM,0.597 µM,,
CN(c1ccc2c(ccn2C(=O)OC(C)(C)C)c1)c1nc(Cl)nc2sccc12,0.253 µM,0.282 µM,0.152 µM,,
CN(c1ccc2c(ccn2C)c1)c1nc(N2CCOCC2)nc2sccc12,0.0707 µM,0.0602 µM,0.0564 µM,,
COc1cc2c(c(OC)c1OC)-c1ccc(OC)c(=O)cc1[C@@H](NC(C)=O)CC2 [COLCHICINE],0.0441 µM,0.0491 µM,0.0587 µM,,
Cn1ccc2cc(Nc3ncnc4sccc34)ccc21,> 5 µM,> 5 µM,> 5 µM,,
CC(C)(C)OC(=O)n1ccc2cc(Nc3nc(Cl)nc4sccc34)ccc21,> 5 µM,> 5 µM,> 5 µM,,
CCN1CCN(c2nc(N(C)c3ccc4c(ccn4C)c3)c3ccsc3n2)CC1,0.288 µM,0.406 µM,0.402 µM,,
COc1ccc(/C=C\c2cc(OC)c(OC)c(OC)c2)cc1O [COMBRETASTATIN A4],0.00629 µM,0.00738 µM,0.00511 µM,27.1%,
CC(=O)O[C@H]1C(=O)[C@@]2(C)[C@H]([C@H](OC(=O)c3ccccc3)[C@]3(O)C[C@H](OC(=O)[C@H](O)[C@@H](NC(=O)c4ccccc4)c4ccccc4)C(C)=C1C3(C)C)[C@]1(OC(C)=O)CO[C@@H]1C[C@@H]2O,,,,,Not active; Increase In Fluorescence Intensity Observed

# Further molecules by falling IC50 (MGC-803 [1]), results first:
IC50 (MGC-803 [1]),IC50 (HCT-116),SMILES,IC50 (KYSE-450),inhibition in vivo at 20 mg/kg (MGC-803 [2]),inhibition (Tubulin (Homo sapiens))
0.0402 µM,0.0542 µM,CCn1ccc2cc(N(C)c3nc(Cl)nc4sccc34)ccc21,0.0398 µM,,
0.0206 µM,0.0196 µM,CN(c1ccc2c(ccn2C)c1)c1nc(N2CCC(O)CC2)nc2sccc12,0.0301 µM,,
0.0183 µM,0.0293 µM,CN(c1ccc2c(ccn2C)c1)c1nc(N2CCC(Cl)CC2)nc2sccc12,0.0256 µM,,
0.0148 µM,0.0182 µM,CN(c1ccc2c(ccn2C)c1)c1nc(N2CCCCC2)nc2sccc12,0.0132 µM,,
0.0129 µM,0.0177 µM,CN(c1ccc2c(ccn2C)c1)c1nc(N2CCC(F)CC2)nc2sccc12,0.0207 µM,,
0.0123 µM,0.0182 µM,CN(c1ccc2c(ccn2C)c1)c1nc(N2CCC2)nc2sccc12,0.0161 µM,,
0.00894 µM,0.0176 µM,CN(c1ccc2c(ccn2C)c1)c1ncnc2ccsc12,0.0347 µM,,
0.00812 µM,0.00621 µM,CC1CCN(c2nc(N(C)c3ccc4c(ccn4C)c3)c3ccsc3n2)CC1,0.00917 µM,,
0.00681 µM,0.00677 µM,COC1CCN(c2nc(N(C)c3ccc4c(ccn4C)c3)c3ccsc3n2)CC1,0.00833 µM,,
0.00532 µM,0.00512 µM,CN(c1ccc2c(ccn2C)c1)c1ncnc2sccc12,0.0251 µM,,
0.00423 µM,0.00728 µM,CN(c1ccc2[nH]ccc2c1)c1nc(Cl)nc2sccc12,0.00512 µM,,
0.00418 µM,0.00317 µM,CN(c1ccc2c(ccn2C)c1)c1nc(Cl)nc2ccsc12,0.0161 µM,,
0.00367 µM,0.00828 µM,CCN(c1ccc2c(ccn2C)c1)c1nc(Cl)nc2sccc12,0.00777 µM,,
0.00207 µM,0.00279 µM,CN(c1ccc2c(ccn2C)c1)c1nc(Cl)nc2sccc12,0.00328 µM,,
